Source: PMC6930649, “Four New Iridoid Metabolites Have Been Isolated from the Stems of Neonauclea reticulata (Havil.) Merr. with Anti-Inflammatory Activities on LPS-Induced RAW264.7 Cells” (Molecules, 2019)
≈ marks a conversion by molar mass, not a printed value.

Experiments:
[1] = test system: NO production by LPS stimulated in RAW264.7 cells; assay: Inhibition of NO production in LPS-stimulated RAW264.7 macrophages (Griess reagent); assay type: cell-based, mouse; conditions: LPS-stimulated RAW264.7 cells; for IC50: Mus musculus, read-out: IC50 (inhibition of nitric oxide production)
Experimental: (§1) RAW264.7 the mouse macrophages cell line (Bioresource Collection and Research Center (BCRC) Number: 60001) was obtained from Food Industry Research and Development Institute (Hsinchu, Taiwan). All of the cell lines were cultured in DMEM containing 10% (v:v) fetal bovine serum (FBS), penicillin and streptomycin (100 U/mL), 4 mM L-glutamine (100 U/mL). The cells were cultured in a humidified incubator under 5% CO2 at 37 °C. The RAW264.7 cells (5 × 10^5 cells per mL) were seeded into plates for 24 h before treatment.
(§2) The in-vitro cell viability activity of MeOH extracts, partition fractions and pure compounds were determined by the MTT assay. RAW264.7 cells (5 × 10^4/well) were seeded in 96-well plates and incubated for 24 h. The cells were treated with MeOH extracts and contain partition fractions in various concentrations (0, 62.5, 125, 250, 500 and 1000 μg/mL), compounds and positive control (0, 6.25, 12.5, 25, 50 and 100 μg/mL) in the presence or absence of LPS (100 ng/mL) for 24 h. After 24 h, the medium was replaced with a medium containing 0.5 mg/mL MTT solution and incubated at 37 °C for 4 h. After the end of the MTT reaction, we used 0.04 N HCl /isopropanol solution to dissolve the formazan crystals. The absorbance was measured at 570 nm using a microplate reader (Molecular Devices, LLC.). The cell viability was calculated and compared with the control group.
The supernatant collected from cell culture and mixed with an equal volume of Griess reagent (1% sulphanilamide, 0.1% naphthylethylenediamine dihydrochloride and 5% phosphoric acid) and the absorbance value was measured at 540 nm using an ELISA plate reader.
The IC50 values for NO production were presented as mean values ± SD (standard deviations) of at least three independent experiments. The statistical significance of the differences was evaluated using Student’s t-test using IBM SPSS v.20.0 (SPSS Inc., Chicago, IL, USA). The percentage of NO production and cell viability were compared using variance analysis with GraphPad Prism 7.0 (GraphPad Software Inc., San Diego, CA, USA).

[2] = Cell viability assay (MTT) in RAW264.7 cells; assay type: cell-based; conditions: mouse, RAW264.7 macrophage cells, 6.25-100 μg/mL, LPS 100 ng/mL, mean ± SD of three independent experiments
Experimental: as §1, §2

[3] = pure compounds, 6.25-100 μg/mL, 24 h, mean ± SD of three independent experiments

## COc1ccc2c(c1)c(CC(=O)O)c(C)n2C(=O)c1ccc(Cl)cc1 [Indomethacin, indomethacin, reference compound]
[1]; [3]
  IC50: 46.7 ± 3.14 µg/mL (≈ 131 µM)
[2]
  CC50 at 24 h: > 100 µg/mL

## COC(=O)C1=COC[C@@H]2[C@@H](C)[C@@H](O)C[C@H]12 [Compound 6, siphonostegiol]
[1]; [3]
  IC50: > 100 µg/mL
[2]
  CC50 at 24 h: > 100 µg/mL

## COc1cc(C(=O)C(O)CO)ccc1O (stereo not drawn) [Compound 20, C-veratroylglycol]
[1]; [3]
  IC50: > 100 µg/mL
[2]
  CC50 at 24 h: > 100 µg/mL

## COC(=O)C1=CNC(=O)[C@@H]2[C@@H](C)[C@@H](O)C[C@H]12 [Compound 5, strychnovoline]
[1]; [3]
  IC50: > 100 µg/mL
[2]
  CC50 at 24 h: > 100 µg/mL

## COc1cc([C@H]2OC[C@H]3[C@@H]2CO[C@@H]3c2cc(OC)c(O)c(OC)c2)cc(OC)c1O [Compound 10, syringaresinol]
[1]; [3]
  IC50: 9.18 ± 1.9 µg/mL (≈ 21.9 µM)
[1]; NO inhibition
  IC50 fold less than indomethacin (positive control): 5 fold
[2]
  CC50 at 24 h: > 100 µg/mL

## COc1cc(/C=C/C(=O)O)ccc1O [Compound 18, ferulic acid]
[1]; [3]
  IC50: > 100 µg/mL
[2]
  CC50 at 24 h: > 100 µg/mL

## O=C(O)/C=C/c1ccc(O)c(O)c1 [Compound 15, trans-caffeic acid]
[1]; [3]
  IC50: 95.2 ± 1.2 µg/mL (≈ 528 µM)
[2]
  CC50 at 24 h: > 100 µg/mL

## C/C=C1/C(=O)OCC[C@H]1CCO [Compound 8, floribundane B]
[1]; [3]
  IC50: > 100 µg/mL
[2]
  CC50 at 24 h: > 100 µg/mL

## COc1cc([C@@H]2OC[C@@H]3[C@H]2CO[C@H]3c2cc(OC)c(O)c(OC)c2)ccc1O [Compound 12, (+)-medioresinol]
[1]; [3]
  IC50: 76.2 ± 2.42 µg/mL (≈ 196 µM)
[2]
  CC50 at 24 h: > 100 µg/mL

## COC(=O)C(CO)C1CC(O)C(C)C1COC(=O)c1ccccc1 (stereo not drawn) [Compound 2, neonanin D]
[1]; [3]
  IC50: > 100 µg/mL
[2]
  CC50 at 24 h: > 100 µg/mL

## COC(=O)C1C(O)OC(=O)C2C(C)C(O)CC12 (stereo not drawn) [Compound 1, neonanin C]
[1]; [3]
  IC50: > 100 µg/mL
[2]
  CC50 at 24 h: > 100 µg/mL

## C[C@@H]1[C@H]2COC(=O)[C@@H](CO)[C@H]2C[C@@H]1O [Compound 9, alyxialactone]
[1]; [3]
  IC50: > 100 µg/mL
[2]
  CC50 at 24 h: > 100 µg/mL

## COc1cc(C(=O)CCO)cc(OC)c1O [Compound 17, 3-hydroxy-1-(4-hydroxy 3,5-dimethoxyphenyl)-1-propanone]
[1]; [3]
  IC50: > 100 µg/mL
[2]
  CC50 at 24 h: > 100 µg/mL

## (+)-pinoresinol [Compound 11]
[1]; [3]
  IC50 (inhibition of nitric oxide production): >100 µg/mL

## COc1ccc(O)c(O)c1 [Compound 13, 4-methoxycatechol]
[1]; [3]
  IC50: > 100 µg/mL
[2]
  CC50 at 24 h: > 100 µg/mL

## COc1cc(C(=O)O)cc(OC)c1O [Compound 16, syringic acid]
[1]; [3]
  IC50: > 100 µg/mL
[2]
  CC50 at 24 h: > 100 µg/mL

## O=C(O)c1ccc(O)c(O)c1 [Compound 14, protocatechuic acid]
[1]; [3]
  IC50: 72.9 ± 4.97 µg/mL (≈ 473 µM)
[2]
  CC50 at 24 h: > 100 µg/mL

## C[C@@H]1[C@H]2COC(=O)C[C@H]2C[C@@H]1O [Compound 7, isoboonein]
[1]; [3]
  IC50: 86.3 ± 3.45 µg/mL (≈ 507 µM)
[2]
  CC50 at 24 h: > 100 µg/mL

## COC(=O)C1=COC(O)C2C1CC(OC1OC(=O)C3C(C)C(O)CC3C1C(=O)OC)C2C (stereo not drawn) [Compound 3, reticunin A]
[1]; [3]
  IC50: > 100 µg/mL
[2]
  CC50 at 24 h: > 100 µg/mL

## COC(=O)C1COC(=O)C2C(C)C(OC3OC(=O)C4C(C)C(O)CC4C3C(=O)OC)CC12 (stereo not drawn) [Compound 4, reticunin B]
[1]; [3]
  IC50: > 100 µg/mL
[2]
  CC50 at 24 h: > 100 µg/mL

## COC(=O)c1ccc(O)c(O)c1 [Compound 19, protocatechuic acid methyl ester]
[1]; [3]
  IC50: > 100 µg/mL
[2]
  CC50 at 24 h: > 100 µg/mL
